According to paper PMC3695784, “2,3-cis-2R,3R-(−)-epiafzelechin-3-O-p-coumarate, a novel flavan-3-ol isolated from Fallopia convolvulus seed, is an estrogen receptor agonist in human cell lines” (BMC Complementary and Alternative Medicine, 2013):

Legend:
SKBR3 cells [1] = test: Control SKBR3 cells with ERE-Luc plasmid but not transfected with ER; format: cell-based, human; details: E2 10 nM, 24 h
Experimental: SKBR3 cells were transfected with 0 .2 µ g ERE-Luc plasmid, 0.05 µ g of either pcDNA3ERα or pcDNA3ERβ, and 0.55 µg pcDNA3.1+. Control SKBR3 cells were transfected with 0.2 µ g ERE-Luc plasmid and 0.6 µ g pcDNA3.1+. Cells were treated for 24 h, lysed, and luciferase activity assessed. Luciferaseexpression was normalized using the Bradford assay.

human ERα = human ERα (Homo sapiens, UniProt P03372); test: SKBR3 cells transiently transfected with ERα and ER-responsive luciferase reporter; format: cell-based
Source text: (§1) The human ERβ expression plasmid (ERβ/pcDNA3) was constructed by PCR amplification of the human ERβ segment (530 aa, GenBank: AF051427.1) out of pCMV5 (kindly provided by Dr. John Katzenellenbogen, University of Illinois) and insertion of this fragment at BstEII and AflII restriction sites into the modified pcDNA3 construct, which was previously described. […] The human ERα expression plasmid, pcDNA3.1 + ERα, was purchased from Missouri S&T cDNA Resouce Center and was confirmed by restriction digestion. […] The generated plasmids were verified by DNA sequencing. Plasmids ERβ/pcDNA3 and ERα/pcDNA3were used as templates for in vitro expression (Additional file 2); ERα and ERβ were synthesized in vitro using the TNT Quick coupled transcription/translation rabbit reticulocyte lysate system (Promega). Briefly, ^35S-Radiolabeled hERα and hERβ were synthesized in separate reactions in vitro according to manufacturer’s protocol, denatured, and subjected to SDS-polyacrylamide gel electrophoresis, and the kDa of each protein was determined by autoradiography of the dried gel.
(§2) Protein concentration was determined using the Bradford assay.
Luciferase activity was expressed as relative light units (RLU) for assays using BG1Luc4E2 cells or as a ratio of luciferase RLU/mg protein for assays using SKBR3 cells. Protein amount (mg) was calculated from concentrations obtained in Bradford assay and the respective luciferase RLU was divided by mg protein to obtain luciferase RLU/mg protein. Average luciferase RLU (or luciferase RLU/mg protein) values were calculated from triplicate wells. Solvent luciferase RLU (or luciferase RLU/mg) was subtracted from luciferase RLU induced by chemical. In the case of extract and fractions, luciferase RLU induced by method blank was subtracted from luciferase RLU induced by extract or fraction. […] Half-maximal inductions of each treatment (EC50) were determined as described in [34].

SKBR3 cells [2] = test: Toxicity observed in transfected SKBR3 cells (protein concentration, RLU, cell death)
Experimental: SKBR3 cells were grown and maintained in high-glucose DMEM and 10% premium FBS. SKBR3 cells were cultured in phenol red-free medium supplemented with 10% charcoal-stripped FBS for 48 h before transfection and seeded in 24-well plates at a density of 300,000 cells/mL. 24 h after plating, cells were transfected for 24 h using Lipofectamine reagent (2 μL/well) according to the manufacturer’s recommendations (0.2 μg of ER-responsive reporter plasmid pGudLuc7ere [32] and 0.05 μg receptor plasmids (ERα/pcDNA3 or ERβ/pcDNA3) or empty vector (pcDNA3.1+) per well, normalizing μg DNA/well to 0.8 μg/well with empty vector). 24 h post-transfection, SKBR3 cells were incubated for 24 h with chemical, the cells harvested, and both protein concentration and luciferase activity determined. Protein concentration was determined using the Bradford assay [35]. Briefly, 5 μL/well SKBR3 lysate was incubated for 5 min at room temperature with 1X Bradford Reagent (200 μL). Protein concentration was calibrated against a standard curve of bovine serum albumin (0.05-0.5 mg/mL) on the same plate and was measured as mg protein/mL using a PhosphorImager (Molecular Dynamics).

BG1Luc4E2 cells = test: Cell death/toxicity observed in BG1Luc4E2 bioassay; format: cell-based, human
Experimental: Method blank treatments were included if applicable. […] Protein concentration was determined using the Bradford assay.

estrogen receptor = molecular target: T1, estrogen receptor (Homo sapiens, UniProt P03372); test: BG1Luc4E2 stably transfected estrogen-responsive luciferase reporter bioassay; format: cell-based
T1 construct: the BG1Luc4E2 cell line endogenously expresses ERα; endogenous in cells; host or cells: BG1Luc4E2 (human ovarian carcinoma, stably transfected ERE-luciferase reporter)
Experimental: as §2
(§3) Luciferase activity was expressed as relative light units (RLU) for assays using BG1Luc4E2 cells or as a ratio of luciferase RLU/mg protein for assays using SKBR3 cells. Protein amount (mg) was calculated from concentrations obtained in Bradford assay and the respective luciferase RLU was divided by mg protein to obtain luciferase RLU/mg protein. Average luciferase RLU (or luciferase RLU/mg protein) values were calculated from triplicate wells. Solvent luciferase RLU (or luciferase RLU/mg) was subtracted from luciferase RLU induced by chemical. In the case of extract and fractions, luciferase RLU induced by method blank was subtracted from luciferase RLU induced by extract or fraction. […] The Student’s t-test (2-tailed, paired) was used to establish significant difference of chemical/fraction/extract activity from that of solvent or method blank (p ≤ 0.05), and dose–response curves were fitted using a sigmoidal Hill’s 4-parameter algorithm (SigmaPlot v.9.0, Systat, San Jose, CA), as described previously. Half-maximal inductions of each treatment (EC50) were determined as described in [34].

human ERβ = molecular target: T2, human ERβ (Homo sapiens, UniProt Q92731); test: SKBR3 cells transiently transfected with ERβ and ER-responsive luciferase reporter; format: cell-based; details: for maximum luciferase induction, percent of maximum E2 activity: ERβ-transfected SKBR3, 10 nM E2 = 100%, normalized to protein
T2 construct: human ERβ segment (530 aa, GenBank: AF051427.1); expressed in transfected cells; host or cells: SKBR3 (human breast carcinoma), transient transfection with ERβ/pcDNA3
Source text: as §1, §2, §3

ERα or ERβ [3] = details: E2 standard set as 100%; cited from earlier work
ERα or ERβ [4] = details: greater in ERβ; cited from earlier work

T2 sequence (Q92731 whole entry): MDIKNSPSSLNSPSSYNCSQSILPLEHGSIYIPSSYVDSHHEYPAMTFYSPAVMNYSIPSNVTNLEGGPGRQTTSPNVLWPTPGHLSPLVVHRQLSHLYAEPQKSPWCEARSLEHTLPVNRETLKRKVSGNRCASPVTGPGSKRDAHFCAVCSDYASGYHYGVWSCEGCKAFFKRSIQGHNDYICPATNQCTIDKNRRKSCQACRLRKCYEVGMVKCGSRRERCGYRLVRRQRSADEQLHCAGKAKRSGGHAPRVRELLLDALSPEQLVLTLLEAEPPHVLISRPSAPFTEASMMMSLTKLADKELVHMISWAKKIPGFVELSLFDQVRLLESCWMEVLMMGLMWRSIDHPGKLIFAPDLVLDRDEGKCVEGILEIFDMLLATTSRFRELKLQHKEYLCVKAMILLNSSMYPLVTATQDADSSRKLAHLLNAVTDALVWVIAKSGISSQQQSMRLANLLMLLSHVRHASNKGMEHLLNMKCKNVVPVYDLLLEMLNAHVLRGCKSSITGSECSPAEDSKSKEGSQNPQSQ
human ERα, sequence (P03372 311-547): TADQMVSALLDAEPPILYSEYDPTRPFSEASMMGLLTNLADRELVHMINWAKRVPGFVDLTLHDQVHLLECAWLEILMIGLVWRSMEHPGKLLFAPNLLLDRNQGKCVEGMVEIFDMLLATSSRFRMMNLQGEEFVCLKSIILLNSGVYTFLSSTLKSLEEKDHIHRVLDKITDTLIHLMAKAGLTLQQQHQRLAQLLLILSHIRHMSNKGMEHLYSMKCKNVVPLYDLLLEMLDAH
T1 sequence (P03372 whole entry): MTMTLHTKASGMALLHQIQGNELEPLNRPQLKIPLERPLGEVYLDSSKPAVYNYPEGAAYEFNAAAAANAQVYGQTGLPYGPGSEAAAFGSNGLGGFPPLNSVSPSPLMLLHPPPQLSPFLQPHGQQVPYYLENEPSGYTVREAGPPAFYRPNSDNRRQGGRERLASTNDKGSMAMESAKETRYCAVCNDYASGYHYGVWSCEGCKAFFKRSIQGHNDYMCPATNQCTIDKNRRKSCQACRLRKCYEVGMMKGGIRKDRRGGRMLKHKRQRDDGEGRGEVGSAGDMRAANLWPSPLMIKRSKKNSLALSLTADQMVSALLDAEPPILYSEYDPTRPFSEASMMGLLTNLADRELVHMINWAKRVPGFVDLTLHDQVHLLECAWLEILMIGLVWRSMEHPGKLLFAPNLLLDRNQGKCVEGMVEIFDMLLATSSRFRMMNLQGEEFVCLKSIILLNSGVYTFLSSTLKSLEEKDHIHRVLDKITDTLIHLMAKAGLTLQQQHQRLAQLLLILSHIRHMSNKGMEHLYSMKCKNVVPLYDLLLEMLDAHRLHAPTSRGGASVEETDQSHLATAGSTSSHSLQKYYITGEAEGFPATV

For `C[C@]12CC[C@@H]3c4ccc(O)cc4CC[C@H]3[C@@H]1CC[C@@H]2O` [E2, 17-β-estradiol], which “luciferase expression in cells not transfected with ER” value (SKBR3 cells [1]) is on record?
Its value is “do not express luciferase”.

What does the source list for `O=C(C=Cc1ccc(O)cc1)OC1Cc2c(O)cc(O)cc2OC1c1ccc(O)cc1` [rhodoeosein, 2,3-cis-(2R,3R)-(−)-epiafzelechin-3-O-p-coumarate]?
maximum luciferase induction, percent of maximum E2 activity (human ERα; ERα-transfected SKBR3, 10 nM E2 = 100%, normalized to protein): 78 ± 8%; REP (relative estrogenic potency = EC50 E2/EC50 chemical) (human ERα; SKBR3 (ERα)): 3.4 × 10^-6; EC50 (human ERα; SKBR3 (ERα), luciferase, 24 h, read-out: EC50 (concentration for half-maximal induction)): 5.8 µM; concentrations resulting in significantly decreased protein concentration (SKBR3 cells [2]): greater than 100 μM; effect on cells at 0.316 mM (SKBR3 cells [2]): caused cell death; concentrations that killed BG1Luc4E2 cells (BG1Luc4E2 cells; 24 h incubation): ≥ 250 µM; effect on cells at 0.25, 0.316, and 1 mM (BG1Luc4E2 cells; BG1Luc4E2 cells): caused cell death; toxicity at 197 μM (BG1Luc4E2 cells; BG1Luc4E2 cells, 197 μM): no toxicity; EC50 (estrogen receptor; BG1Luc4E2 (ovarian), luciferase, 24 h, read-out: EC50 (concentration for half-maximal induction)): 120 µM; concentrations resulting in no luciferase induction (estrogen receptor; BG1Luc4E2 cells): below 31.6 μM; orders of magnitude weaker in potency than the E2 standard (estrogen receptor; BG1Luc4E2 cells): approximately 7 orders of magnitude; maximum luciferase induction, percent of maximum E2 activity (estrogen receptor; BG1Luc4E2 cells, 1 nM E2 = 100%, 24 h): > 400%; luciferase induction, percent of maximum E2 activity (estrogen receptor; BG1Luc4E2 cells, 119 μM and 158 μM, superinduction): > 400%; maximum luciferase induction, percent of maximum E2 activity (human ERβ): 80 ± 10%; REP (relative estrogenic potency = EC50 E2/EC50 chemical) (human ERβ; SKBR3 (ERβ)): 1.5 × 10^-5

With `O=c1c(-c2ccc(O)cc2)coc2cc(O)ccc12` [diadzein] as the compound, how does the “relative binding affinity, ERβ versus ERα” value (“relative binding affinity” for short) (ERα or ERβ [3]) read?
The value was “greater to ERβ than to ERα”.

For `O=c1oc2cc(O)ccc2c2oc3cc(O)ccc3c12` [coumestrol], which “relative binding affinity” value (ERα or ERβ [3]) is on record?
The value was “greater to ERβ than to ERα”.

Which results are given for `Cc1cc(O)c2c(c1)C(=O)c1cc(O)cc(O)c1C2=O` [emodin, reference compound]?
concentrations toxic to SKBR3 cells (SKBR3 cells [2]): greater than 10 μM; maximum luciferase induction, percent of maximum E2 activity (human ERβ): 127 ± 26%; EC50 (human ERβ; SKBR3 (ERβ), luciferase, 24 h, read-out: EC50 (concentration for half-maximal induction)): 3 µM; REP in ERβ-transfected versus ERα-transfected yeast cells (ERα or ERβ [4]): approximately one order of magnitude

With `COc1ccc(-c2coc3cc(O)cc(O)c3c2=O)cc1` [biochanin A] as the compound, how does the “relative binding affinity” value (ERα or ERβ [3]) read?
The value was “greater to ERβ than to ERα”.

For `O=c1c(-c2ccc(O)cc2)coc2cc(O)cc(O)c12` [genistein, reference compound], which “concentrations resulting in significantly decreased RLU” value (SKBR3 cells [2]) is on record?
The value was “greater than 10 μM”.
